In patent US10375956B2, “Herbicidally active 2-(substituted-phenyl)-cyclopentane-1,3-dione compounds and derivatives thereof” (Syngenta Limited, priority 2013, dated 2019):

Legend:
Type in all cases: in vivo
[1] = test system: Panicum miliaceum (PANMI); assay: Test 2 glasshouse assay (IF50 formulation, X-77), pre-emergence herbicidal activity; details: 480 h, 250 g/ha, 20DAA, read-out: Percentage phytotoxicity PANMI
Method: (§1) Seeds of a variety of monocotyledonous and dicotyledonous test plants are sown in standard soil in pots. The plants are cultivated for one day (for pre-emergence) or for about 12 days (for post-emergence) under controlled conditions in a glasshouse (warm climate species at 24/18° C., cool climate species at 20/16° C., both at day/night; 16 hours light; 65% humidity).
(§2) An “instant formulation”, known as the “IF50”, containing 50 g/liter (i.e. 5% w/v) of the “technical” (i.e. unformulated) active ingredient is prepared by dissolving the active ingredient in a mixture of organic solvents and emulsifier, details of which are provided in the Table below. This IF50 is then mixed with a small, variable amount of acetone to aid dissolution, before addition of a 0.2% v/v aqueous solution of the adjuvant X-77 (which is a mixture of alkyl aryl polyoxyethylene glycols and free fatty acids in isopropanol, CAS Registry number 11097-66-8), as the aqueous diluent, to form an aqueous spray solution which contains a predetermined concentration of the active ingredient (which varies depending on the application rate of the active ingredient to the plants) and 0.2% v/v of the adjuvant X-77. This aqueous spray solution is then sprayed onto the plants, after one day's cultivation (for pre-emergence), or after about 12 days' cultivation (range=10-13 days) (for post-emergence).
(§3) The test plants are then grown on, in a glasshouse (greenhouse) under controlled conditions (warm climate species at 24/18° C., cool climate species at 20/16° C., both at day/night; 16 hours light; 65% humidity) and are watered twice daily. 15 days after application of the test herbicide (15DAA) (for post-emergence), and 20 days after application of the test herbicide (20DAA) (for pre-emergence), the test plants are evaluated visually, and an assessed percentage phytotoxicity score is given for each herbicidal application on each plant species (with 100%=total damage to plant; 0%=no damage to plant).
(§4) Warm climate (“warm season”) grassy monocotyledonous weeds: Setaria faberi (SETFA), Panicum miliaceum (PANMI), Sorghum vulgare Pers. (SORVU) (or Sorghum bicolor (L) Moench ssp. Bicolor), Digitaria sanguinalis (DIGSA), Echinochloa crus-galli (ECHCG), and Brachiaria plantaginea (BRAPL).

Setaria faberi (SETFA) [2] = assay: as above; details: 480 h, 250 g/ha, 20DAA, read-out: Percentage phytotoxicity SETFA
Method: as §1, §2, §3, §4

[3] = test system: Echinochloa crus-galli (ECHCG); assay: as above; details: 480 h, 250 g/ha, 20DAA, read-out: Percentage phytotoxicity ECHCG
Method: as §1, §2, §3, §4

[4] = test system: Digitaria sanguinalis (DIGSA); assay: as above; details: 480 h, 250 g/ha, 20DAA, read-out: Percentage phytotoxicity DIGSA
Method: as §1, §2, §3, §4

[5] = test system: Sorghum vulgare Pers. (SORVU); assay: as above; details: Sorghum bicolor, 480 h, 250 g/ha, 20DAA, read-out: Percentage phytotoxicity SORVU
Method: as §1, §2, §3, §4

[6] = test system: Alopecurus myosuroides (ALOMY); assay: Test 2 glasshouse assay (IF50 formulation, X-77), post-emergence herbicidal activity; details: 360 h, 15 DAA, visual score, read-out: Post-emergence herbicidal activity (percentage phytotoxicity) ALOMY; for pest or weed control at 30 g/ha: application rate 30 g/ha; for pest or weed control at 250 g/ha: application rate 250 g/ha
Method: as §1, §2, §3
(§5) Cool climate (“cool season”) grassy monocotyledonous weeds: Alopecurus myosuroides (ALOMY), Avena fatua (AVEFA), Lolium perenne (LOLPE).

Avena fatua (AVEFA) = assay: as above; details: 360 h, 15 DAA, visual score, read-out: Post-emergence herbicidal activity (percentage phytotoxicity) AVEFA; for pest or weed control at 30 g/ha: application rate 30 g/ha; for pest or weed control at 250 g/ha: application rate 250 g/ha
Method: as §1, §2, §3, §5

Lolium perenne (LOLPE) [7] = assay: as above; details: 360 h, 15 DAA, visual score, read-out: Post-emergence herbicidal activity (percentage phytotoxicity) LOLPE; for pest or weed control at 30 g/ha: application rate 30 g/ha; for pest or weed control at 250 g/ha: application rate 250 g/ha
Method: as §1, §2, §3, §5

Setaria faberi (SETFA) [8] = assay: Test 1 glasshouse assay, post-emergence herbicidal activity; details: 312 h, post-emergence (Example 1B Table 1), after 13 days, read-out: Percentage phytotoxicity SETFA
Method: (§6) Seeds of a variety of test species are sown in standard soil in pots. After cultivation for one day (pre-emergence) or after 8 days cultivation (post-emergence) under controlled conditions in a glasshouse (at 24/16° C., day/night; 14 hours light; 65% humidity), the plants are sprayed with an aqueous spray solution derived from the formulation of the “technical” (i.e. unformulated) active ingredient in acetone/water (50:50) solution containing 0.5% Tween 20 (polyoxyethylene sorbitan monolaurate, CAS Registry Number 9005-64-5). The test plants are then grown on under controlled conditions in a glasshouse (at 24/16° C., day/night; 14 hours light; 65% humidity) and watered twice daily. After 13 days for pre- or post-emergence, the test is evaluated visually, and an assessed percentage phytotoxicity score is given for each herbicidal application on each plant species (where 100%=total damage to plant; 0%=no damage to plant).
(§7) Test plants include the following: Abutilon theophrasti (ABUTH) and Amaranthus retroflexus (AMARE); these are all dicotyledonous (broadleaved) weeds. Setaria faberi (SETFA), Alopecurus myosuroides (ALOMY), and Echinochloa crus-galli (ECHCG); these are all grassy monocotyledonous weeds. Also: Zea mays (ZEAMX, corn/maize), which can be a grassy weed (“volunteer” corn) in some circumstances.

[9] = test system: Zea mays (ZEAMX, corn/maize); assay: as above; details: 312 h, post-emergence (Example 1B Table 1), after 13 days, read-out: Percentage phytotoxicity ZEAMX
Method: as §6, §7

[10] = test system: Abutilon theophrasti (ABUTH); assay: as above; details: 312 h, post-emergence (Example 1B Table 1), after 13 days, read-out: Percentage phytotoxicity ABUTH
Method: as §6, §7

[11] = test system: Amaranthus retroflexus (AMARE); assay: as above; details: 312 h, post-emergence (Example 1B Table 1), after 13 days, read-out: Percentage phytotoxicity AMARE
Method: as §6, §7

Lolium perenne (LOLPE) [12] = assay: Test 2 glasshouse assay (IF50 formulation, X-77), pre-emergence herbicidal activity; details: 480 h, 250 g/ha, 20DAA, read-out: Percentage phytotoxicity LOLPE
Method: as §1, §2, §3, §5

SMILES	pest or weed control at 250 g/ha [1]	pest or weed control at 250 g/ha (Setaria faberi (SETFA) [2])	pest or weed control at 250 g/ha [3]	pest or weed control at 250 g/ha [4]	pest or weed control at 250 g/ha [5]	pest or weed control at 250 g/ha [6]	pest or weed control at 250 g/ha (Avena fatua (AVEFA))	pest or weed control at 250 g/ha (Lolium perenne (LOLPE) [7])	pest or weed control at 30 g/ha (Setaria faberi (SETFA) [8])	pest or weed control at 250 g/ha (Setaria faberi (SETFA) [8])	pest or weed control at 30 g/ha [9]	pest or weed control at 250 g/ha [9]	pest or weed control at 30 g/ha [10]	pest or weed control at 250 g/ha [10]	pest or weed control at 30 g/ha [11]	pest or weed control at 250 g/ha [11]	pest or weed control at 250 g/ha (Lolium perenne (LOLPE) [12])	other results
C#CCC1CC(=O)C(c2c(Cl)cc(-c3ccc(Cl)cn3)cc2OC)C1=O (stereo not shown) [Compound A10]	100%	100%	100%	100%	100%	100%	100%	90%	100%	100%	100%	100%	80%	80%	80%	80%	70%	pest or weed control at 30 g/ha [6]: 50%; pest or weed control at 30 g/ha (Avena fatua (AVEFA)): 60%; pest or weed control at 30 g/ha (Lolium perenne (LOLPE) [7]): 30%
C#CCC1CC(=O)C(c2c(C)cc(C)cc2C)C1=O (stereo not shown) [Compound A23]	100%	90%	100%	90%	70%												100%	pest or weed control at 125 g/ha ([6]; application rate 125 g/ha): 90%; pest or weed control at 125 g/ha (Avena fatua (AVEFA); application rate 125 g/ha): 80%; pest or weed control at 125 g/ha (Lolium perenne (LOLPE) [7]; application rate 125 g/ha): 90%
C#CCC1CC(=O)C(c2c(F)cc(-c3ccc(F)cc3)cc2OC)C1=O (stereo not shown) [Compound A20, 2-[2-fluoro-4-(4-fluorophenyl)-6-methoxyphenyl]-4-prop-2-ynylcyclopentane-1,3-dione]									80%	100%	90%	100%	0%	60%	0%	70%		
C#CCC1CC(=O)C(c2c(F)cc(-c3ccc(Cl)cn3)cc2Cl)C1=O (stereo not shown) [Compound A8]	90%	70%	60%	80%	80%	80%	90%	60%	100%	100%	100%	100%	70%	80%	80%	90%	80%	pest or weed control at 30 g/ha [6]: 50%; pest or weed control at 30 g/ha (Avena fatua (AVEFA)): 50%; pest or weed control at 30 g/ha (Lolium perenne (LOLPE) [7]): 40%
C#CCC1CC(=O)C(c2cc(-c3ncc(Cl)cc3F)ccc2C)C1=O (stereo not shown) [Compound A18]						30%	30%	10%	60%	80%	60%	80%	0%	60%	0%	60%		
C#CCC1CC(=O)C(c2cc(-c3ccc(Cl)cc3Cl)ccc2C)C1=O (stereo not shown) [Compound A15]	20%	20%	10%	50%	30%	40%	10%	20%		70%		80%		60%		40%	0%	
C#CCC1CC(=O)C(c2c(F)cc(-c3ccc(F)cc3F)cc2OC)C1=O (stereo not shown) [Compound A21]									80%	100%	100%	100%	0%	40%	10%	30%		
C#CCC1CC(=O)C(c2cc(-c3ncc(Cl)cn3)ccc2C)C1=O (stereo not shown) [Compound A19]						40%	10%	10%	70%	90%	40%	30%	0%	30%	0%	20%		
